Here are results for four compounds from publication PMC10405867 (Journal of Enzyme Inhibition and Medicinal Chemistry, 2023).

The structures appear in SMILES notation.

The experiment has as its target SARS-CoV-2 Mpro (Severe acute respiratory syndrome coronavirus 2, UniProt P0DTD1). Nature of the experiment: biochemical. The experiment is classed as biochemical.

In general, IC50 refers to the concentration needed to halve the response being measured. Lower therefore signals higher potency. `NS(=O)(=O)c1ccc(NC(=O)Cn2cc(CN3C(=O)C(=O)c4ccccc43)nn2)cc1` [6a, 2–(4-((2,3-Dioxoindolin-1-yl)methyl)-1H-1,2,3-triazol-1-yl)-N-(4-sulfamoylphenyl)acetamide] had an IC50 of 0.562 ± 0.005 µM.

With `NS(=O)(=O)c1ccc(NC(=O)Cn2cc(CN3C(=O)C(=O)c4cc(OC(F)(F)F)ccc43)nn2)cc1` [6d, 2–(4-((2,3-Dioxo-5-(trifluoromethoxy)indolin-1-yl)methyl)-1H-1,2,3-triazol-1-yl)-N-(4-sulfamoylphenyl)acetamide], the IC50 was 1.05 ± 0.053 µM and the “fold decreased 3CL-Pro inhibitory activity than unsubstituted counterpart 6a” value was “about 2 fold”.

`CC(=O)c1ccc(NC(=O)Cn2cc(CN3C(=O)C(=O)c4ccccc43)nn2)cc1` [10a, N-(4-Acetylphenyl)-2–(4-((2,3-dioxoindolin-1-yl)methyl)-1H-1,2,3-triazol-1-yl)acetamide] returned an IC50 of 12.3 ± 0.73 µM.

`COc1ccc2c(c1)C(=O)C(=O)N2Cc1cn(CC(=O)Nc2ccc(C(C)=O)cc2)nn1` [10b, N-(4-Acetylphenyl)-2–(4-((5-methoxy-2,3-dioxoindolin-1-yl)methyl)-1H-1,2,3-triazol-1-yl)acetamide] registered an IC50 of 17.1 ± 0.815 µM.
